The test system of the experiment is dopaminergic neurons. The experiment is described as follows: Drug screening on Parkinson's disease-like basal ganglia-on-a-chip model (6-OHDA induced). It is filed as cell-based. Conditions: 50 μM L-dopa after Parkinson's disease-like model established with 100 μM 6-OHDA. The source says:
In order to fabricate a basal ganglia-on-a-chip, SH-SY5Y (ATCC CRL-2266) was used as dopaminergic neurons, and F3-NG1 (provided from professor Hong-Joon Lee at Chung-Ang University) were allowed to differentiate and then used as GABAergic neurons and glutamatergic neurons. Parkinson's disease is caused by the gradual loss of dopaminergic neurons distributed in the substantia nigra. 6-Hydroxydopamine (6-OHDA) causes oxidative stress to induce mitochondrial migration of c-Jun N-terminal kinase (JNK), and the activated JNK after mitochondrial migration causes mitochondrial dysfunction, contributing to apoptosis of dopaminergic neurons, occurring in Parkinson's disease. Based on this, a Parkinson's disease model was developed using 100 μM 6-OHDA.

The structures appear in SMILES notation. Entries after “also recorded” stand apart in the source; their conditions may differ.

Consider `N[C@@H](Cc1ccc(O)c(O)c1)C(=O)O` [L-dopa, L-3,4-dihydroxyphenylalanine], for which the “proliferation of dopaminergic neurons” value is reported as “increase in the proliferation of dopaminergic neurons; also recorded: proliferation of dopaminergic neurons was confirmed”.

Values taken from US11959909B2, “Basal ganglia-on-chip for screening therapeutic agents for brain and nervous system diseases” (priority 2018, dated 2024).
